Results from the supplement of paper PMC11451515.

Tested on: NOMO1
Experiment: cell viability relative to DMSO control; higher = less cytotoxic
Details: 48 h
In short: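 Viability, reported as a per-plate percentage of DMSO wells with cell-free wells as background, came from CellTiter-Glo One luminescence. Reading took place after 48 h at 37°C. Before that, NOMO1 or SEM (500 cells/well) or P12-Ichikawa (1000 cells/well) leukemia cells, adapted for at least four passages in each medium, were seeded in 1536-well plates (5 μl) and pin-dosed with library compounds in DMSO, 47 μM to 0.79 nM over 11 threefold points.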

[1] = HPLM + 10% dialyzed FBS, 0.000781 µM
[2] = HPLM + 10% dialyzed FBS, 0.00234 µM
[3] = HPLM + 10% dialyzed FBS, 0.00702 µM
[4] = HPLM + 10% dialyzed FBS, 0.0211 µM
[5] = HPLM + 10% dialyzed FBS, 0.0632 µM
[6] = HPLM + 10% dialyzed FBS, 0.19 µM
[7] = HPLM + 10% dialyzed FBS, 0.569 µM
[8] = HPLM + 10% dialyzed FBS, 1.71 µM
[9] = HPLM + 10% dialyzed FBS, 5.12 µM
[10] = HPLM + 10% dialyzed FBS, 15.4 µM
[11] = HPLM + 10% dialyzed FBS, 46.1 µM
[12] = RPMI 5 mM glucose + 10% FBS, 0.000781 µM
[13] = RPMI 5 mM glucose + 10% FBS, 0.00234 µM
[14] = RPMI 5 mM glucose + 10% FBS, 0.00702 µM
[15] = RPMI 5 mM glucose + 10% FBS, 0.0211 µM
[16] = RPMI 5 mM glucose + 10% FBS, 0.0632 µM
[17] = RPMI 5 mM glucose + 10% FBS, 0.19 µM
[18] = RPMI 5 mM glucose + 10% FBS, 0.569 µM
[19] = RPMI 5 mM glucose + 10% FBS, 1.71 µM
[20] = RPMI 5 mM glucose + 10% FBS, 5.12 µM
[21] = RPMI 5 mM glucose + 10% FBS, 15.4 µM
[22] = RPMI 5 mM glucose + 10% FBS, 46.1 µM
[23] = RPMI 5 mM glucose + 10% dialyzed FBS, 0.000781 µM
[24] = RPMI 5 mM glucose + 10% dialyzed FBS, 0.00234 µM
[25] = RPMI 5 mM glucose + 10% dialyzed FBS, 0.00702 µM
[26] = RPMI 5 mM glucose + 10% dialyzed FBS, 0.0211 µM
[27] = RPMI 5 mM glucose + 10% dialyzed FBS, 0.0632 µM
[28] = RPMI 5 mM glucose + 10% dialyzed FBS, 0.19 µM
[29] = RPMI 5 mM glucose + 10% dialyzed FBS, 0.569 µM
[30] = RPMI 5 mM glucose + 10% dialyzed FBS, 1.71 µM
[31] = RPMI 5 mM glucose + 10% dialyzed FBS, 5.12 µM
[32] = RPMI 5 mM glucose + 10% dialyzed FBS, 15.4 µM
[33] = RPMI 5 mM glucose + 10% dialyzed FBS, 46.1 µM

SMILES: CO[C@H]1/C=C/O[C@@]2(C)Oc3c(C)c(O)c4c(O)c(c5c(nc6cc(C)ccn65)c4c3C2=O)NC(=O)/C(C)=C\C=C\[C@H](C)[C@H](O)[C@@H](C)[C@@H](O)[C@@H](C)[C@H](OC(C)=O)[C@@H]1C
- cell viability [1]: 104%
- cell viability [2]: 119%
- cell viability [3]: 112%
- cell viability [4]: 96.1%
- cell viability [5]: 116%
- cell viability [6]: 110%
- cell viability [7]: 96%
- cell viability [8]: 93.8%
- cell viability [9]: 35.5%
- cell viability [10]: 91.7%
- cell viability [11]: 11.1%
- cell viability [12]: 107%
- cell viability [13]: 99.1%
- cell viability [14]: 97.7%
- cell viability [15]: 110%
- cell viability [16]: 82.7%
- cell viability [17]: 105%
- cell viability [18]: 87.6%
- cell viability [19]: 98.7%
- cell viability [20]: 43.8%
- cell viability [21]: 91.4%
- cell viability [22]: 44.9%
- cell viability [23]: 99.4%
- cell viability [24]: 97.8%
- cell viability [25]: 95.3%
- cell viability [26]: 108%
- cell viability [27]: 86.3%
- cell viability [28]: 108%
- cell viability [29]: 99.9%
- cell viability [30]: 99.7%
- cell viability [31]: 28.9%
- cell viability [32]: 82.3%
- cell viability [33]: 18.6%

SMILES: CC(=O)N(C)c1cccc(-c2ccnc3c(C(=O)c4cccs4)cnn23)c1
- cell viability [1]: 110%
- cell viability [2]: 107%
- cell viability [3]: 110%
- cell viability [4]: 77.7%
- cell viability [5]: 99.4%
- cell viability [6]: 94.8%
- cell viability [7]: 104%
- cell viability [8]: 119%
- cell viability [9]: 97.5%
- cell viability [10]: 113%
- cell viability [11]: 95.2%
- cell viability [12]: 95.6%
- cell viability [13]: 104%
- cell viability [14]: 100%
- cell viability [15]: 92.6%
- cell viability [16]: 99.5%
- cell viability [17]: 104%
- cell viability [18]: 98%
- cell viability [19]: 100%
- cell viability [20]: 102%
- cell viability [21]: 94.5%
- cell viability [22]: 90.1%
- cell viability [23]: 92.8%
- cell viability [24]: 103%
- cell viability [25]: 87.2%
- cell viability [26]: 73.7%
- cell viability [27]: 97.9%
- cell viability [28]: 89%
- cell viability [29]: 99.4%
- cell viability [30]: 87.2%
- cell viability [31]: 95.6%
- cell viability [32]: 99.6%
- cell viability [33]: 82.2%

SMILES: C[C@](O)(COc1ccc(C#N)cc1)C(=O)Nc1ccc(C#N)c(C(F)(F)F)c1
- cell viability [1]: 83.2%
- cell viability [2]: 81.5%
- cell viability [3]: 81.2%
- cell viability [4]: 95.6%
- cell viability [5]: 90.1%
- cell viability [6]: 99.1%
- cell viability [7]: 90.4%
- cell viability [8]: 96%
- cell viability [9]: 88.6%
- cell viability [10]: 97%
- cell viability [11]: 71.2%
- cell viability [12]: 72.8%
- cell viability [13]: 93.8%
- cell viability [14]: 94.4%
- cell viability [15]: 85.4%
- cell viability [16]: 96.2%
- cell viability [17]: 95.3%
- cell viability [18]: 103%
- cell viability [19]: 96.2%
- cell viability [20]: 88.8%
- cell viability [21]: 92.8%
- cell viability [22]: 75.9%
- cell viability [23]: 75.5%
- cell viability [24]: 88.7%
- cell viability [25]: 86.8%
- cell viability [26]: 98.3%
- cell viability [27]: 92.5%
- cell viability [28]: 97.2%
- cell viability [29]: 95.2%
- cell viability [30]: 102%
- cell viability [31]: 85.2%
- cell viability [32]: 92.4%
- cell viability [33]: 78.8%

SMILES: O=NN(CCCl)C(=O)NC1CCCCC1
- cell viability [1]: 91.4%
- cell viability [2]: 114%
- cell viability [3]: 110%
- cell viability [4]: 94.8%
- cell viability [5]: 105%
- cell viability [6]: 107%
- cell viability [7]: 113%
- cell viability [8]: 110%
- cell viability [9]: 111%
- cell viability [10]: 97.4%
- cell viability [11]: 109%
- cell viability [12]: 99.2%
- cell viability [13]: 95.4%
- cell viability [14]: 113%
- cell viability [15]: 95.2%
- cell viability [16]: 102%
- cell viability [17]: 108%
- cell viability [18]: 115%
- cell viability [19]: 56.6%
- cell viability [20]: 100%
- cell viability [21]: 110%
- cell viability [22]: 102%
- cell viability [23]: 102%
- cell viability [24]: 102%
- cell viability [25]: 93.5%
- cell viability [26]: 105%
- cell viability [27]: 111%
- cell viability [28]: 97.7%
- cell viability [29]: 113%
- cell viability [30]: 93.6%
- cell viability [31]: 99.2%
- cell viability [32]: 109%
- cell viability [33]: 99.7%

SMILES: O=C([O-])C(O)Cc1ccc(O)c(O)c1 (stereo not drawn)
- cell viability [1]: 100%
- cell viability [2]: 91%
- cell viability [3]: 108%
- cell viability [4]: 95.5%
- cell viability [5]: 116%
- cell viability [6]: 106%
- cell viability [7]: 99.4%
- cell viability [8]: 100%
- cell viability [9]: 90.8%
- cell viability [10]: 74.9%
- cell viability [11]: 60.1%
- cell viability [12]: 91.8%
- cell viability [13]: 83.7%
- cell viability [14]: 87.1%
- cell viability [15]: 96.5%
- cell viability [16]: 91.2%
- cell viability [17]: 91.8%
- cell viability [18]: 84%
- cell viability [19]: 92.5%
- cell viability [20]: 87.4%
- cell viability [21]: 77.9%
- cell viability [22]: 64.3%
- cell viability [23]: 96.7%
- cell viability [24]: 102%
- cell viability [25]: 104%
- cell viability [26]: 100%
- cell viability [27]: 96.4%
- cell viability [28]: 91.4%
- cell viability [29]: 100%
- cell viability [30]: 84.4%
- cell viability [31]: 81.4%
- cell viability [32]: 78.5%
- cell viability [33]: 65.4%

SMILES: C[C@@H](NC1=CC=CC=C1C(O)=O)C/2=C/C(=C\N3C(=O)/C=C(\N=C23)N4CCOCC4)C
- cell viability [1]: 81.1%
- cell viability [2]: 88.7%
- cell viability [3]: 89.8%
- cell viability [4]: 93.6%
- cell viability [5]: 99.7%
- cell viability [6]: 81.6%
- cell viability [7]: 82.6%
- cell viability [8]: 61.7%
- cell viability [9]: 40.3%
- cell viability [10]: 29.4%
- cell viability [11]: 11.7%
- cell viability [12]: 79.1%
- cell viability [13]: 73.6%
- cell viability [14]: 79.9%
- cell viability [15]: 91.2%
- cell viability [16]: 88.2%
- cell viability [17]: 87.5%
- cell viability [18]: 78%
- cell viability [19]: 77.7%
- cell viability [20]: 48.3%
- cell viability [21]: 27.7%
- cell viability [22]: 11.1%
- cell viability [23]: 74.8%
- cell viability [24]: 82.9%
- cell viability [25]: 95.2%
- cell viability [26]: 88.9%
- cell viability [27]: 87.8%
- cell viability [28]: 93.4%
- cell viability [29]: 83%
- cell viability [30]: 65.2%
- cell viability [31]: 41.8%
- cell viability [32]: 33.1%
- cell viability [33]: 7.82%
